Where two headings read alike, the source gives them in different places.
Molecular target: LPA2 (Homo sapiens, UniProt Q9HBW0)
Assay: LPA receptor-mediated Ca2+ mobilization assay, LPA2 (RH7777 cells stably expressing LPA2)
Assay type: cell-based
Set-up: expressed in transfected cells
Details: for receptor specificity of activation among established and putative LPA GPCRs: up to 10 μM
Method: Similarity searches were performed separately using each fingerprint to quantitate similarity. Hits meeting the 80% similarity threshold from each search were ranked based on the Tanimoto coefficient measure of similarity to a target molecule NSC12404, and the top 75 unique hits from each fingerprint search were selected for further analysis. […] This selected a diverse subset of 27 compounds for biological evaluation by choosing the middle compounds in each cluster. These 27 compounds were tested in Ca^2+ mobilization assays at a concentration of 10 μM using stable cell lines individually expressing LPA2 and also in vector-transfected control cells. Hits activating LPA2 were further tested using cells expressing the other established and putative LPA GPCRs. […] They arbitrarily selected GRI977143 for further characterization in cell-based assays.
The newly-synthesized compounds were tested for their ability to induce Ca^2+ transients in RH7777 cells stably expressing the LPA2 receptor.
The cells were loaded with Fura-2-acetoxymethyl esther (Fura-2/AM) in Krebs buffer containing 0.01% pluronic acid for 30 min and rinsed with Krebs buffer before measuring Ca^2+ mobilization. The ratio of peak emissions at 510 nm after 2 min of ligand addition was determined for excitation wavelengths of 340 nm/380 nm. All samples were run in quadruplicate. […] The half maximally effective concentration (EC50), and inhibitory constant (Ki) values were calculated by fitting a sigmoid function to dose-response data points using KaleidaGraph software (version 4.1, Synergy Software; […]).
Mouse embryonic fibroblast (MEF) cells were isolated from E13.5 LPA1&2 double knockout (DKO) embryos. MEFs were transduced with empty vector or LPA2-containing lentiviruses and selected with 1.5 μg/ml puromycin. Cells were maintained in Dulbecco's modified Eagle medium (DMEM) supplemented with 10% (V/V) fetal bovine serum (FBS), 2 mM L-glutamine, 100 U/mL penicillin, and 100 μg/mL streptomycin. Serum-free medium contained 0.1% (W/V) BSA in DMEM. The rat intestinal epithelial cell line 6 (IEC-6) was obtained from the American Type Culture Collection (Rockville, Md.) at passage 13; passages 16-21 were used in all experiments. IEC-6 cells were maintained in a humidified 37° C. incubator in an atmosphere of 90% air and 10% CO2. Growth medium consisted of DMEM supplemented with 5% heat inactivated FBS, 10 μg/mL insulin, and 50 μg/mL gentamycin. The composition of the serum-starvation medium was the same as that of the full growth medium except that it contained no FBS. The McArdle rat hepatoma cell line (RH7777) stably expressing LPA2 receptors was a gift from Dr. Fumikazu Okajima (Gunma University, Maebashi, Japan). RH7777 cells stably expressing LPA1 or LPA3 receptors were generated in-house and had been characterized earlier. Wild type and LPA receptor (LPAR) stably transfected RH7777 cells were grown in DMEM supplemented with 10% FBS and 2 mM L-glutamine in the presence of 250 μg/ml G418. Chinese hamster ovary (CHO) cells stably expressing either vector or LPA4 receptor were a kind gift from Dr. Takao Shimizu (Tokyo University; Tokyo, Japan). Cells were cultured in Ham's F12 medium containing 10% FBS, 2 mM L-glutamine, and 350 μg/ml G418. Rat neuroblastoma cells (B103) were transduced with the lentivirus harboring wild type of FLAG-LPA5 and selected with puromycin to establish the stable cell lines. The stable cells were maintained in DMEM supplemented with 10% FBS and 0.4 μg/ml puromycin. GPR87- and P2Y10-expressing CHO cells and vector-transfected control cells were a gift from Dr. Norihisha Fujita (Ritsumeikan University; Shiga, Japan). The highly invasive MM1 rat hepatoma cells (gift from Dr. Michiko Mukai, Osaka University, Japan) were grown in suspension in DMEM supplemented with 10% (V/V) FBS, 2 mM L-glutamine, 100 U/mL penicillin, and 100 μg/mL streptomycin.

[1] = agonist, Ca2+ mobilization, read-out: LPA2 EC50

LPA2, sequence (Q9HBW0 whole entry): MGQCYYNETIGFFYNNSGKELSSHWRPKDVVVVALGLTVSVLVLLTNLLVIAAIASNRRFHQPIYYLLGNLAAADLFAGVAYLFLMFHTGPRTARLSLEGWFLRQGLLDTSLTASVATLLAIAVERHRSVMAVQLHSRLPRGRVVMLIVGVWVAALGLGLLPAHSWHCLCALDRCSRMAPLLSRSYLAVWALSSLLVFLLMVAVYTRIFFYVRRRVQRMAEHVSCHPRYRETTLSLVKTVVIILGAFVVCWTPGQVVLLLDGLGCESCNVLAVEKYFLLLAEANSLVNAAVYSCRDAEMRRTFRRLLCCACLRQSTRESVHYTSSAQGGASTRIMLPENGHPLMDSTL

Molecule	EC50 [1]	receptor specificity of activation among established and putative LPA GPCRs	Emax (Ca2+ transients, RH7777 cells stably expressing LPA2)	EC50 (Ca2+ transients, RH7777 cells stably expressing LPA2, read-out: EC50 (μM) (RH7777))
O=C(O)c1cc(Cl)c(Cl)cc1C(=O)Nc1ccc2c(c1)C(=O)c1ccccc1-2 [Compound H2L5547924]	2.8 µM	activated only LPA2	–	–
O=C(O)c1ccccc1C(=O)Nc1ccc2c(c1)C(=O)c1ccccc1C2=O [Compound H2L5828102]	3.3 µM	activated only LPA2	–	–
O=C(O)c1ccccc1SCCCN1C(=O)c2cccc3cccc(c23)C1=O [GRI977143]	3.3 µM	activated only LPA2	64%	3.3 µM
O=C(O)c1ccccc1C(=O)Nc1ccc2c(c1)C(=O)c1ccccc1-2 [NSC12404]	9.5 µM	–	–	–
octadecenyl thiophosphate [OTP]	0.336 µM	–	–	–
